Results: US12285512B2, “Composition comprising allulose as active ingredient for skin whitening” (CJ CHEILJEDANG CORPORATION, priority 2018, dated 2025)
Entries after “also recorded” stand apart in the source; their conditions may differ.

Experiments:
Murine melanocytes = experiment: Inhibitory effect on melanogenesis: intracellular melanin (OD405) in a-MSH-treated murine melanocytes; type: cell-based; details: 50 μM a-MSH, 72 hours, FIG. 1
Procedure: Murine melanocytes were seeded on each 6-well plate at 1×10^4 cells/well. In a sample treatment group 24 hours after the seeding, cells were treated with allulose (CJ CheilJedang, 98% or higher purity) at a concentration of 0.01 wt %, 0.1 wt %, and 1 wt %. In a positive control group, cells were treated with arbutin at 0.02 wt %. A comparative group was treated with 1 wt % of glucose (Sigma Aldrich) or 1 wt % of fructose (Sigma Aldrich). An untreated group (control) was not treated with a sample, or a-MSH inducing melanin production. The sample treatment group, the positive control group, the comparative group, and the negative control group were treated with 50 μM of a-MSH. After 72 hours of treatment, cells were recovered and lysed with NaOH to detect intracellular melanin. The absorbances (OD405) of the untreated group, the negative control group (treated with only a-MSH), the sample treatment group (treated with a-MSH and each sample by concentration), and the positive control group (treated with a-MSH and arbutin) were measured.

tyrosinase from mushroom [1] = experiment: Polyphenol oxidase (tyrosinase from mushroom) activity, catechol substrate, absorbance at 420 nm; type: biochemical; details: 50 mM sample, 30 mM catechol substrate, pH 6.5; FIG. 2
Procedure: (§1) An enzyme solution was prepared by dissolving 0.2 mg/ml of tyrosinase from mushroom (25 KU, 2687 units/mg solid) in 50 mM sodium phosphate buffer (pH 6.5). […] As a substrate, 30 mM catechol, an enzyme solution, and 100 mM sodium phosphate buffer (pH 6.5) were mixed so that the mixing ratio of catechol:enzyme solution:sodium phosphate buffer was 5:1:4. […] As a co-sample solution, DW was added instead of the enzyme solution. After mixing, absorbance was measured at 420 nm.

tyrosinase from mushroom [2] = experiment: Quantitative LC analysis of substrate (catechol) in the tyrosinase enzyme reactant; type: biochemical; details: 50 mM sample; for Reduction rate of catechol compared to initial stage of reaction: 0 to 60 min, D.W. control 8.2%; for Reduction rate of catechol compared to initial stage of reaction / amount of catechol in the enzyme reactant: 37° C.; for tyrosinase activity (from catechol consumption, Table 2): LC quantification of catechol
Procedure: as §1
A catechol standard preparation was diluted according to concentration, and then was subjected to LC analysis to obtain a standard curve of the catechol. 200 μl of each enzyme reaction solution obtained in Experimental Example 2-1 above was added into a PCR tube, and was reacted at 37° C. for 0 minutes (an enzyme reaction product in which the enzyme was inactivated by heating each enzyme reaction solution for 10 minutes), 10 minutes, 20 minutes, 30 minutes, and 60 minutes to prepare an enzyme reactant for each reaction time. The reaction was stopped using a heat block. The reaction was stopped according to the planned time and heated in a heat block at 105° C. for 10 minutes, and then put in ice and cooled for 10 minutes. The PCR tube was centrifuged twice using a centrifuge. LC analysis was carried out by a typical analytical method. The enzyme reactant was filtered with a 1-ml syringe. The filtered enzyme reactant was injected into an insert, and was subjected to LC analysis. The amount of catechol in the enzyme reactant was measured according to the standard curve, which is obtained in advance, for quantifying catechol.

[3] = reaction time 0 min (enzyme inactivated by heating)

Structure (SMILES) | melanogenesis (intracellular melanin, OD405) (Murine melanocytes; 1 wt % of sample) | melanogenesis (intracellular melanin, OD405) (Murine melanocytes; allulose-treated group (0.01, 0.1 and 1 wt %)) | tyrosinase activity (absorbance at 420 nm) (tyrosinase from mushroom [1]) | Reduction rate of catechol compared to initial stage of reaction (tyrosinase from mushroom [2]) | tyrosinase activity (from catechol consumption, Table 2) (tyrosinase from mushroom [2]) | amount of catechol in the enzyme reactant (tyrosinase from mushroom [2]; [3]) | amount of catechol in the enzyme reactant (tyrosinase from mushroom [2]; reaction time 30 min) | amount of catechol in the enzyme reactant (tyrosinase from mushroom [2]; reaction time 60 min)
O=C(CO)C(O)C(O)C(O)CO (centres unmarked) [allulose] | inhibit melanogenesis; also recorded: melanogenesis was significantly inhibited | melanogenesis was suppressed | tyrosinase activity was inhibited | 6.1% | tyrosinase activity was inhibited | 3288.7 ppm | 3126.7 ppm | 3087.0 ppm
OC[C@H]1O[C@@](CO)(O[C@H]2O[C@H](CO)[C@@H](O)[C@H](O)[C@H]2O)[C@@H](O)[C@@H]1O [Comparative Example 1, sucrose] | – | – | – | 8.1% | not inhibited at all | 3296.7 ppm | 3112.0 ppm | 3031.0 ppm
O=C(CO)[C@@H](O)[C@H](O)[C@H](O)CO [fructose] | melanogenesis was not inhibited at all | – | not inhibited at all | 8.2% | not inhibited at all | 3236.0 ppm | 3069.0 ppm | 2971.0 ppm
